From patent US20080280837A1, “Biologically Active Compounds with Anti-Angiogenic Properties” (priority 2004, published 2008) come the findings set out here.

The assay concerns the target T1, Human SST5 somatostatin receptor (SSTR5) (Homo sapiens, UniProt P35346).
T1 construct: expressed in transfected cells; host or cells: HEK-293 EBNA
Kind of assay: Filter plate assay for SST5 receptor, displacement of [125I]SST-14. The format is binding. As for the experimental part:
Receptor membrane preparations containing the desired cloned receptor (for example cloned human somatostatin receptor subtype 5, SSTR5) and radio-labeled ligand (for example 3-[^125I]iodotyrosyl^11 Somatostatin-14)) were diluted at the concentration required for testing and according to the specific parameters associated with the selected receptor-ligand combination, including receptor Bmax, ligand Kd and any other parameters necessary to optimize the experimental conditions. When tested for competition activity to the reference ligand, “compound 1” was mixed with membrane suspension and the radiolabeled reference ligand (with or without an excess of cold ligand to the receptor for determination of non-specific binding) and incubated at the temperature required by internal standard operating procedures. Following incubation, the binding reaction was stopped by the addition of ice-cold washing buffer and filtered on appropriate filters, which are then counted. Data analysis and curve-fitting was performed with XLfit (IDBS).
10 mM solutions of test compounds in 100% DMSO were prepared. ˜160 μl was used for each dilution (20 μl/well in triplicate).
A 1.25 mM assay stock was prepared by making a 1:8 dilution of the 10 mM solution. (To 30 μL of the 10 mM solution was added 210 μL milli-Q H2O. A 1:5 dilution series in milli-Q H2O was then prepared.
Assays were performed in triplicate at each concentration within the 1:5 dilution series: 250 μM, 50 μM, 10 μM, […], 0.4 μM, 0.08 μM, 0.016 μM, 0.0032 μM, etc. (for SST4 assay) and 125 μM, 10 μM, 2 μM, 1 μM, 0.5 μM, etc (for SST5 assay).
Human SST5 somatostatin receptor was transfected into HEK-293 EBNA cells. Membranes were suspended in assay buffer (50 mM Tris-HCl, 1 mM EGTA, 5 mM MgCl2, 10% sucrose, pH 7.5).
After thawing the frozen receptor preparation rapidly, receptors were diluted with binding buffer, homogenized, and kept on ice. • 1. Use Multiscreen glass fiber filter plates (Millipore, Cat No MAFCNOB10) precoated with o.5% PEI for ˜2 hr at 4° C. Before use add 200 μl/well assay buffer and filter using Multiscreen Separation System. • 2. Incubate 5.5 μg of membranes (40 μl of a 1:40 dilution), buffer and [^125I]SST-14 (4 nM, ˜80 000 cpm, 2000 Ci/mmol) in a total volume of 200 μl for 60 min at 25° C. […] Prepare serial dilutions (1:5) of compounds, as described above and instead of adding SST-14 in well, add 20 μl of compounds (Table 1). • 3. Filter using Multiscreen Separation System with 5×0.2 ml ice-cold Assay buffer. • 4. Remove the plastic underdrain and dry plate in oven for 1 hr at 40° C. • 5. Seal tape to the bottom of the plate. • 6. Add 50 μl/well scintillant (Supermix, Wallac, Cat No 1200-439). • 7. Seal and count in the BJET, program 2.
In primary screening experiments compounds were tested in duplicate for a particular concentration.

T1 sequence (P35346 whole entry): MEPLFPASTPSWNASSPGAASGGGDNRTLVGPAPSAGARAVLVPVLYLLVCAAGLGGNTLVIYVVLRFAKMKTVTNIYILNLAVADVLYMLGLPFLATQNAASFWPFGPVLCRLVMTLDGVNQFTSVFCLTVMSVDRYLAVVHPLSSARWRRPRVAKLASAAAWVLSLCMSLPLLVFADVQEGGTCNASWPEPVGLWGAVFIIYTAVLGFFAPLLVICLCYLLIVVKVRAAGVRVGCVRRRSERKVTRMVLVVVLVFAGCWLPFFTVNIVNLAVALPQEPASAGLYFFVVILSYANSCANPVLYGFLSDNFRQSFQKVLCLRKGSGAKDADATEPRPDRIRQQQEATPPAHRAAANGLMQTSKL

For the compound `COC[C@H]1OC(OCc2ccc3ccccc3c2)[C@H](NC(=O)CCCNC(=N)N)[C@H](OCc2ccc(Cl)cc2)[C@@H]1O` (some centres unmarked) [Compound 17], the “SSTR5 Inhib 0.5 uM % (inhibition of binding of SST-14 to SSTR5)” value (“SSTR5 Inhib 0.5 uM %” for short) is on record as 84% and the “SSTR5 Inhib 10 uM % (inhibition of binding of SST-14 to SSTR5)” value (shortened to “SSTR5 Inhib 10 uM %”) stood at 98%.
The corresponding values for `COC[C@H]1OC(OCc2ccccc2)[C@H](NC(=O)CCN)[C@H](OCc2ccc3ccccc3c2)[C@@H]1O` (some centres unmarked) [Compound 18] are 90% and 98%.
With `COC[C@H]1OC(OCc2ccc(Cl)cc2)[C@H](NC(=O)CCCN)[C@@H](OCc2ccc3ccccc3c2)[C@@H]1O` (some centres unmarked) [Compound 19], the “SSTR5 Inhib 0.5 uM %” value turned out to be 88% and the “SSTR5 Inhib 10 uM %” value is given as 98%.
The corresponding values for `COC[C@H]1OC(OCc2ccc3ccccc3c2)[C@H](NC(=O)CCCN)[C@H](OCc2ccc(Cl)cc2)[C@@H]1O` (some centres unmarked) [Compound 20] are 76% and 97%.
For `COC[C@H]1OC(OCc2ccc3ccccc3c2)[C@H](NC(=O)CCN)[C@H](OCc2ccccc2)[C@@H]1O` (some centres unmarked) [Compound 21], the “SSTR5 Inhib 0.5 uM %” value was 81% and the “SSTR5 Inhib 10 uM %” value is reported as 97%.
`COC[C@H]1OC(OCc2ccccc2)[C@H](NC(=O)CCN)[C@H](OCc2ccc(Cl)cc2)[C@@H]1O` (some centres unmarked) [Compound 22]: the “SSTR5 Inhib 0.5 uM %” value is 80% and the “SSTR5 Inhib 10 uM %” value was 96%.
Regarding `COC[C@H]1OC(OCc2ccc3ccccc3c2)[C@H](NC(=O)CCCNC(=N)N)[C@@H](OCc2ccc(Cl)cc2)[C@@H]1O` (some centres unmarked) [Compound 23], the “SSTR5 Inhib 0.5 uM %” value is listed as 80% and the “SSTR5 Inhib 10 uM %” value is given as 96%.
With `COC[C@H]1OC(OCc2ccc(Cl)cc2)[C@H](NC(=O)CCCN)[C@H](OCc2ccc3ccccc3c2)[C@@H]1O` (some centres unmarked) [Compound 24], the “SSTR5 Inhib 0.5 uM %” value is given as 67% and the “SSTR5 Inhib 10 uM %” value was determined as 96%.
For `COC[C@H]1OC(OCc2ccc3ccccc3c2)[C@H](NC(=O)CCCN)[C@@H](OCc2ccc(-c3ccccc3)cc2)[C@@H]1O` (some centres unmarked) [Compound 25] the same measures were 77% and 96%.
As for `COC[C@H]1OC(OCc2ccc3ccccc3c2)[C@H](NC(=O)CCN)[C@H](OCc2ccc(-c3ccccc3)cc2)[C@@H]1O` (some centres unmarked) [Compound 26], the “SSTR5 Inhib 0.5 uM %” value is listed as 77% and the “SSTR5 Inhib 10 uM %” value was 96%.
With `COC[C@H]1OC(OCc2ccc(Cl)cc2)[C@H](NC(=O)CCCN)[C@H](OCc2ccc(-c3ccccc3)cc2)[C@@H]1O` (some centres unmarked) [Compound 27], the “SSTR5 Inhib 0.5 uM %” value was determined as 74% and the “SSTR5 Inhib 10 uM %” value worked out at 96%.
For `COC[C@H]1OC(OCCc2ccccc2)[C@H](NC(=O)CCCN)[C@H](OCc2ccc3ccccc3c2)[C@@H]1O` (some centres unmarked) [Compound 28], the “SSTR5 Inhib 0.5 uM %” value was 70% and the “SSTR5 Inhib 10 uM %” value was found to be 96%.
For `COC[C@H]1OC(OCc2ccc3ccccc3c2)[C@H](NC(=O)CCCN)[C@@H](OCc2ccc(-c3ccccc3)cc2)[C@@H]1O` (some centres unmarked) [Compound 29] the same measures were 77% and 96%.
On to `COC[C@H]1OC(OCc2ccc(Cl)cc2)[C@H](NC(=O)CCCN)[C@@H](OCc2ccc(-c3ccccc3)cc2)[C@@H]1O` (some centres unmarked) [Compound 30], for which the “SSTR5 Inhib 0.5 uM %” value stood at 80% and the “SSTR5 Inhib 10 uM %” value came out at 96%.
For `COC[C@H]1OC(OCc2ccc(-c3ccccc3)cc2)[C@H](NC(=O)CCCN)[C@@H](OCc2ccc(-c3ccccc3)cc2)[C@@H]1O` (some centres unmarked) [Compound 31] the same measures were 85% and 96%.
The corresponding values for `COC[C@H]1OC(OCc2ccccc2)[C@H](NC(=O)CCCN)[C@@H](OCc2ccc3ccccc3c2)[C@@H]1O` (some centres unmarked) [Compound 32] are 80% and 95%.
The corresponding values for `COC[C@H]1OC(OCc2ccc(Cl)cc2)[C@H](NC(=O)CCCN)[C@@H](OCc2ccc(Cl)cc2)[C@@H]1O` (some centres unmarked) [Compound 33] are 68% and 95%.
Regarding `COC[C@H]1OC(OCCc2ccccc2)[C@H](NC(=O)CCN)[C@H](OCc2ccc(Cl)cc2)[C@@H]1O` (some centres unmarked) [Compound 34], the “SSTR5 Inhib 0.5 uM %” value turned out to be 61% and the “SSTR5 Inhib 10 uM %” value was found to be 95%.
Turning to `COC[C@H]1OC(OCc2ccc3ccccc3c2)[C@H](NC(=O)CCNC(=N)N)[C@H](OCc2ccc(Cl)cc2)[C@@H]1O` (some centres unmarked) [Compound 35], the “SSTR5 Inhib 0.5 uM %” value was 60% and the “SSTR5 Inhib 10 uM %” value was determined as 95%.
The corresponding values for `COC[C@H]1OC(OCc2ccc3ccccc3c2)[C@H](NC(=O)CCNC(=N)N)[C@H](OCc2ccc(-c3ccccc3)cc2)[C@@H]1O` (some centres unmarked) [Compound 36] are 67% and 95%.
As to `COC[C@H]1OC(OCc2ccccc2)[C@H](NC(=O)CCN)[C@H](OCc2ccc3ccccc3c2)[C@@H]1O` (some centres unmarked) [Compound 37], the “SSTR5 Inhib 0.5 uM %” value was determined as 81% and the “SSTR5 Inhib 10 uM %” value is 95%.
`COC[C@H]1OC(OCc2ccc(-c3ccccc3)cc2)[C@H](NC(=O)CCCN)[C@@H](OCc2ccc3ccccc3c2)[C@@H]1O` (some centres unmarked) [Compound 38]: the “SSTR5 Inhib 0.5 uM %” value was 79% and the “SSTR5 Inhib 10 uM %” value was 95%.
For the compound `COC[C@H]1OC(OCc2ccc(Cl)cc2)[C@H](NC(=O)CCN)[C@H](OCc2ccc(Cl)cc2)[C@@H]1O` (some centres unmarked) [Compound 39], the “SSTR5 Inhib 0.5 uM %” value stood at 74% and the “SSTR5 Inhib 10 uM %” value amounted to 95%.
`COC1C(O)C(COCc2ccc(-c3ccccc3)cc2)OC(OCc2ccc(Cl)cc2)C1NC(=O)CCCN` (centres unmarked) [Compound 40]: the “SSTR5 Inhib 0.5 uM %” value worked out at 66% and the “SSTR5 Inhib 10 uM %” value was determined as 95%.
The corresponding values for `COC[C@H]1OC(OCc2ccc(Cl)cc2)[C@H](NC(=O)CCCN)[C@H](OCc2ccc(Cl)cc2)[C@@H]1O` (some centres unmarked) [Compound 41] are 83% and 94%.
Regarding `COC[C@H]1OC(OCCc2ccccc2)[C@H](NC(=O)CCCN)[C@@H](OCc2ccc(Cl)cc2)[C@@H]1O` (some centres unmarked) [Compound 42], the “SSTR5 Inhib 0.5 uM %” value is reported as 77% and the “SSTR5 Inhib 10 uM %” value stood at 94%.
On to `COC[C@H]1OC(OCc2ccc3ccccc3c2)[C@H](NC(=O)CCCN)[C@H](OCc2ccc(-c3ccccc3)cc2)[C@@H]1O` (some centres unmarked) [Compound 43], for which the “SSTR5 Inhib 0.5 uM %” value was 68% and the “SSTR5 Inhib 10 uM %” value stood at 94%.
As for `COC[C@H]1OC(OCCc2ccccc2)[C@H](NC(=O)CCCN)[C@@H](OCc2ccc3ccccc3c2)[C@@H]1O` (some centres unmarked) [Compound 44], the “SSTR5 Inhib 0.5 uM %” value came out at 78% and the “SSTR5 Inhib 10 uM %” value is 94%.
For `CSC1O[C@H](COCc2ccccc2)[C@@H](O)[C@@H](OCc2ccc(Cl)cc2)[C@H]1NC(=O)CNC(=N)N` (some centres unmarked) [Compound 45] the same measures were 71% and 93%.
Take `COC[C@H]1OC(OCc2ccccc2)[C@H](NC(=O)CCCN)[C@H](OCc2ccc(-c3ccccc3)cc2)[C@@H]1O` (some centres unmarked) [Compound 46]: the “SSTR5 Inhib 0.5 uM %” value turned out to be 71% and the “SSTR5 Inhib 10 uM %” value turned out to be 93%.
For the compound `COC[C@H]1OC(OCc2ccc3ccccc3c2)[C@H](NC(=O)CCCN)[C@@H](OCc2ccc(Cl)cc2)[C@@H]1O` (some centres unmarked) [Compound 47], the “SSTR5 Inhib 0.5 uM %” value is listed as 68% and the “SSTR5 Inhib 10 uM %” value is 93%.
